Experiment [1] addresses T1, AhR (Homo sapiens, UniProt P35869).
T1 construct: host or cells: HepG2
T1 sequence (P35869 11-848): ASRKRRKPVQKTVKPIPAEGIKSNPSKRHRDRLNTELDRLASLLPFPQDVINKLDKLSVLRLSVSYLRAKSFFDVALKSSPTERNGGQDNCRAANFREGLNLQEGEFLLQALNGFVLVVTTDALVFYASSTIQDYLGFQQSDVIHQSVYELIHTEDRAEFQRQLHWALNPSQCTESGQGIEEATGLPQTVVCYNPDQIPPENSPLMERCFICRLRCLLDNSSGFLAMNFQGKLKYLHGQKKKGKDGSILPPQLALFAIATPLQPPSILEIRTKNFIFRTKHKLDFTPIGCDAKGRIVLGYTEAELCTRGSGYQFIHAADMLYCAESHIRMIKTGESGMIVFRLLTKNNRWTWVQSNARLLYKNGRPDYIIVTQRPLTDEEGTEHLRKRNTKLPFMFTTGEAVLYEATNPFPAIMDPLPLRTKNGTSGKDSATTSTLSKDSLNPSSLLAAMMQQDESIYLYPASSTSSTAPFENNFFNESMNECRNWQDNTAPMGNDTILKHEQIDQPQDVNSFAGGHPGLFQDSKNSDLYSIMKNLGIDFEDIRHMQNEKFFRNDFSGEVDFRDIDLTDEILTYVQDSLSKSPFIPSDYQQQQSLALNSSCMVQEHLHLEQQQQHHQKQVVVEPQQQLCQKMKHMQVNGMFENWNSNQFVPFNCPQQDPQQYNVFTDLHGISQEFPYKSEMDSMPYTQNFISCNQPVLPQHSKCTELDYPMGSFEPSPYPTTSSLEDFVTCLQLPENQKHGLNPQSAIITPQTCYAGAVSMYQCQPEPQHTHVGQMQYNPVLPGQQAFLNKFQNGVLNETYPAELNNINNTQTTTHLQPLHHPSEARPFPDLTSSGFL
The experiment can be described thus: In vitro assay 4: endogenous AhR activity assay (CYP1A1 and CYP1B1 mRNA, qRT-PCR, HepG2 cells). It is filed as cell-based. Particulars: TCDD 10 nM with compound 123 nM, 4 hours, mRNA relative to β-actin. The protocol:
In Vitro Assay 4: Endogenous AhR Activity Assay
HepG2 cells were seeded in 12-well plate (3×10^5 cells/well). A day after seeding, the cells were treated with TCDD (10 nM) alone or with compounds (123 nM) for 4 hours. Total RNA was extracted using Trizol (Thermo Fisher Scientific). cDNA synthesis and quantitative RT-PCR (qRT-PCR) assays were performed using PrimeScript™ RT Master Mix (TAKARA) and TB Green™ Premix Ex Taq™ II (TAKARA) in accordance with manufacturer's instruction. For the measurement of endogenous AhR activity, relative mRNA levels of CYP1A1 and CYP1B1 were quantitated relative to β(beta)-actin mRNA by the comparative Ct (ΔΔCt) method. The percent inhibitions were calculated according to: […]

Experiment [2] deals with T1, AhR. The experiment can be described thus: In vitro assay 3: XRE-luciferase reporter assay, agonism in human cell line (HepG2). The note with it: HepG2 XRE-Luc, tryptophan free medium, test compound alone, 6 hours. It is filed as cell-based. The method in brief:
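HepG2 cells co-transfected with XRE-firefly luciferase and constitutive Nano-luciferase reporters, plated in tryptophan-free medium with 1% dialyzed FBS, then treated with compound for 6 h at 37 °C. Firefly/Nano-Luc ratio used to derive EC50 by four-parameter nonlinear regression; TCDD as positive control.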
(In general: Reporter assays use an easily measured gene product as a stand-in for the process of interest.)

This note sets out measurements from patent US20230147257A1 (DONG-A ST CO., LTD., priority 2020, published 2023).

Molecules are shown by their SMILES. Read-outs that look alike come from different tables or passages of the source. Some results are limits rather than exact numbers.

On to `CC(CO)n1cnc2c(-c3cccnc3)nc(-c3ccc(Cl)cc3)cc2c1=O` (stereo not shown) [Example 46, 6-(4-chlorophenyl)-3-(1-hydroxypropan-2-yl)-8-(pyridin-3-yl)pyrido[3,4-d]pyrimidin-4(3H)-one], for which the inhibition (commonly the percentage by which the read-out fell short of the control) at 0.123 µM is 90.7% on AhR [1] (read-out: CYP1A1 (% Inhibition)) and 99.1% at AhR [1] (read-out: CYP1B1 (% Inhibition)). The EC50 (as a rule, the concentration at which the effect is half-maximal) was more than 30000 nM at AhR [2] (read-out: Assay 3: AhR-Luc Human Agonism (EC50)) and more than 10000 nM at AhR [2] (read-out: Assay 3: AhR-Luc Human Agonism (EC50, nM), class in brackets).
